According to patent publication US20130317037A1, “METHOD OF ADMINISTRATION AND TREATMENT” (GlaxoSmithKline Intellectual Property Development Limited, priority 2010, published 2013):
Where two headings read alike, the source gives them in different places.

Experiments:
Format in all cases: cell-based
in vitro = settings: human
Method: (§1) From the stock concentration, 8 serial dilutions (1:5) were made with DMSO.
(§2) Day −1: Plate cells in 100 μl volume in 96 well plate. • Note: Cell number seeded adjusted for growth characteristics, so that at time of assay for proliferation following three-day drug treatment, the control wells should still be in log-growth phase (sub-confluent). Day 0: Drug added to plate for treatment. • A time 0 plate was processed for the proliferation assay to establish a baseline reading at time when drug was added.
(§3) LBNL are following the protocols set up by the NCI/NIH DTP Human Tumor Cell Line Screen Process (http://dtp.nci.nih.gov/branches/btb/ivclsp.html) and summarized below.
(§4) [(Ti−Tz)/(C−Tz)]×100 for concentrations for which Ti>/=Tz
(§5) [(Ti−Tz)/(C−Tz)]×100=50, • which is the drug concentration resulting in a 50% reduction in the net growth in control cells during the drug incubation. TGI: Total growth inhibition is calculated from
(§6) Ti=Tz. • The drug concentration resulting in total growth inhibition (down to the ‘time 0’ baseline). LC50: Net loss of cell growth at 50% is calculated from
(§7) [(Ti−Tz)/Tz]×100=−50. • The concentration of drug resulting in a 50% reduction in the cell number at the end of the drug treatment as compared to that at the beginning (time 0) indicating a net loss of cells following treatment.
(§8) Values are calculated for each of these three parameters if the level of activity is reached; however, if the effect is not reached or is exceeded, the value for that parameter is expressed as greater or less than the maximum or minimum concentration tested.

BT549 = experiment: cells
Method: as §1, §2, §3, §4, §5, §6, §7, §8

HCC1143 = experiment: cells
Method: as §1, §2, §3, §4, §5, §6, §7, §8

HCC1187 = experiment: cells
Method: as §1, §2, §3, §4, §5, §6, §7, §8

HCC1395 = experiment: cells
Method: as §1, §2, §3, §4, §5, §6, §7, §8

HCC1500 = experiment: cells
Method: as §1, §2, §3, §4, §5, §6, §7, §8

HCC1569 = experiment: cells
Method: as §1, §2, §3, §4, §5, §6, §7, §8

Hs578T = experiment: cells
Method: as §1, §2, §3, §4, §5, §6, §7, §8

LY2 = experiment: cells
Method: as §1, §2, §3, §4, §5, §6, §7, §8

M4A4 = experiment: cells
Method: as §1, §2, §3, §4, §5, §6, §7, §8

MCF10A = experiment: cells
Method: as §1, §2, §3, §4, §5, §6, §7, §8

MDAMB134 = experiment: cells
Method: as §1, §2, §3, §4, §5, §6, §7, §8

MDAMB175VII = experiment: cells
Method: as §1, §2, §3, §4, §5, §6, §7, §8

MDAMB231 = experiment: cells
Method: as §1, §2, §3, §4, §5, §6, §7, §8

MDAMB453 = experiment: cells
Method: as §1, §2, §3, §4, §5, §6, §7, §8

MDAMB468D = experiment: cells
Method: as §1, §2, §3, §4, §5, §6, §7, §8

MX-1 = experiment: cells
Method: as §1, §2, §3, §4, §5, §6, §7, §8

SUM1315MO2 = experiment: cells
Method: as §1, §2, §3, §4, §5, §6, §7, §8

T47DKBluc = experiment: cells
Method: as §1, §2, §3, §4, §5, §6, §7, §8

ZR75B = experiment: cells
Method: as §1, §2, §3, §4, §5, §6, §7, §8

[1] = Homo sapiens, 50% net loss of cells vs time 0, read-out: LC50 (the source's name)
[2] = Homo sapiens, 72 h, three-day drug treatment, read-out: gIC50

With COc1ncc(-c2ccc3nccc(-c4ccnnc4)c3c2)cc1NS(=O)(=O)c1ccc(F)cc1F [Compound B, 2,4-difluoro-N-{2-(methyloxy)-5-[4-(4-pyridazinyl)-6-quinolinyl]-3-pyridinyl}benzenesulfonamide] the CC50 at 3 days (in vitro; 184A1 breast epithelium cells (HER2−, PIK3CA NA), 184A1, 50% net loss of cells vs time 0, read-out: LC50) was 26700 nM, the CC50 at 3 days (in vitro; 184B5 breast epithelium cells (HER2−, PIK3CA NA), 184B5, 50% net loss of cells vs time 0, read-out: LC50) was over 33000 nM and the CC50 at 3 days (in vitro; MCF10A cells (breast epithelium; HER2−; PIK3CA NA), 50% net loss of cells vs time 0, read-out: LC50) was 6700 nM. The CC50 at 3 days (in vitro; MCF10F cells (breast epithelium; HER2−; PIK3CA NA), 50% net loss of cells vs time 0, read-out: LC50) was 98.7 nM, the CC50 at 3 days (in vitro; MCF12A cells (breast epithelium; HER2−; PIK3CA wild type), 50% net loss of cells vs time 0, read-out: LC50) was 2760 nM and the TGI (BT549; BT549, total growth inhibition) was over 33000.0 nM. For the same molecule, the IC50 (BT549; Homo sapiens, BT-549, 72 h, BT549, three-day drug treatment, read-out: gIC50) was 42.7 nM, the CC50 (BT549; Homo sapiens, BT-549, BT549, 50% net loss of cells vs time 0, read-out: LC50 (the source's name)) was over 33000 nM and the TGI (HCC1143; HCC1143, total growth inhibition) was 344.0 nM. It also gave an IC50 (HCC1143; Homo sapiens, 72 h, HCC1143, three-day drug treatment, read-out: gIC50) of 34 nM, a CC50 (HCC1143; Homo sapiens, HCC1143, 50% net loss of cells vs time 0, read-out: LC50 (the source's name)) of 19500 nM and a TGI (HCC1187; HCC1187, total growth inhibition) of 35.5 nM. For the same molecule, the IC50 (HCC1187; Homo sapiens, 72 h, HCC1187, three-day drug treatment, read-out: gIC50) was 4.9 nM, the CC50 (HCC1187; Homo sapiens, HCC1187, 50% net loss of cells vs time 0, read-out: LC50 (the source's name)) was 118 nM and the TGI (HCC1395; HCC1395, total growth inhibition) was 358.6 nM. For the same molecule, the IC50 (HCC1395; Homo sapiens, 72 h, HCC1395, three-day drug treatment, read-out: gIC50) was 50.3 nM, the CC50 (HCC1395; Homo sapiens, HCC1395, 50% net loss of cells vs time 0, read-out: LC50 (the source's name)) was 26700 nM and the TGI (HCC1500; HCC1500, total growth inhibition) was 371.5 nM. For the same molecule, the IC50 (HCC1500; Homo sapiens, 72 h, HCC1500, three-day drug treatment, read-out: gIC50) was 75.9 nM, the CC50 (HCC1500; Homo sapiens, HCC1500, 50% net loss of cells vs time 0, read-out: LC50 (the source's name)) was 6500 nM and the TGI (HCC1569; HCC1569, total growth inhibition) was 67.4 nM. For the same molecule, the IC50 (HCC1569; Homo sapiens, 72 h, HCC1569, three-day drug treatment, read-out: gIC50) was 16.3 nM, the CC50 (HCC1569; Homo sapiens, HCC1569, 50% net loss of cells vs time 0, read-out: LC50 (the source's name)) was over 33000 nM and the CC50 (Hs578T; Homo sapiens, Hs-578T, 50% net loss of cells vs time 0, read-out: LC50 (the source's name)) was over 33000 nM. The IC50 (Hs578T; Homo sapiens, Hs-578T, 72 h, three-day drug treatment, read-out: gIC50) was 67.4 nM, the TGI (Hs578T; total growth inhibition) was 4556.2 nM and the IC50 (LY2; Homo sapiens, 72 h, LY2, three-day drug treatment, read-out: gIC50) was 11 nM. The TGI (LY2; LY2, total growth inhibition) was 30.2 nM, the IC50 (M4A4; Homo sapiens, 72 h, M4A4, three-day drug treatment, read-out: gIC50) was 30.2 nM and the CC50 (M4A4; Homo sapiens, M4A4, 50% net loss of cells vs time 0, read-out: LC50 (the source's name)) was over 33000 nM. For the same molecule, the TGI (M4A4; M4A4, total growth inhibition) was 281.8 nM, the IC50 (MCF10A; Homo sapiens, MCF-10A, 72 h, three-day drug treatment, read-out: gIC50) was 7.2 nM and the TGI (MCF10A; total growth inhibition) was 467.7 nM. For the same molecule, the IC50 (MDAMB134; Homo sapiens, 72 h, MDAMB134, three-day drug treatment, read-out: gIC50) was 13.2 nM, the CC50 (MDAMB134; Homo sapiens, MDAMB134, 50% net loss of cells vs time 0, read-out: LC50 (the source's name)) was 224 nM and the TGI (MDAMB134; MDAMB134, total growth inhibition) was 60.3 nM. The CC50 (MDAMB175VII; Homo sapiens, MDA-MB-175-VII, 50% net loss of cells vs time 0, read-out: LC50 (the source's name)) was 501 nM, the IC50 (MDAMB175VII; Homo sapiens, MDA-MB-175-VII, 72 h, three-day drug treatment, read-out: gIC50) was 4.4 nM and the TGI (MDAMB175VII; total growth inhibition) was 13.5 nM. The IC50 (MDAMB231; Homo sapiens, MDA-MB-231, 72 h, MDAMB231, three-day drug treatment, read-out: gIC50) was 110 nM, the CC50 (MDAMB231; Homo sapiens, MDA-MB-231, MDAMB231, 50% net loss of cells vs time 0, read-out: LC50 (the source's name)) was over 33000 nM and the TGI (MDAMB231; MDAMB231, total growth inhibition) was over 33000.0 nM. The IC50 (MDAMB453; Homo sapiens, MDA-MB-453, 72 h, MDAMB453, three-day drug treatment, read-out: gIC50) was 7.8 nM, the CC50 (MDAMB453; Homo sapiens, MDA-MB-453, MDAMB453, 50% net loss of cells vs time 0, read-out: LC50 (the source's name)) was 162 nM and the TGI (MDAMB453; MDAMB453, total growth inhibition) was 54.9 nM. It also gave a CC50 (MDAMB468D; [1]) of 2240 nM, an IC50 (MDAMB468D; [2]) of 31.6 nM and a TGI (MDAMB468D; total growth inhibition) of 537.0 nM. For the same molecule, the IC50 (MX-1; Homo sapiens, MX1, 72 h, MX-1, three-day drug treatment, read-out: gIC50) was 5.2 nM, the CC50 (MX-1; Homo sapiens, MX1, MX-1, 50% net loss of cells vs time 0, read-out: LC50 (the source's name)) was 251 nM and the TGI (MX-1; MX-1, total growth inhibition) was 20.4 nM. For the same molecule, the IC50 (SUM1315MO2; Homo sapiens, 72 h, SUM1315MO2, three-day drug treatment, read-out: gIC50) was 10 nM, the CC50 (SUM1315MO2; Homo sapiens, SUM1315MO2, 50% net loss of cells vs time 0, read-out: LC50 (the source's name)) was 8880 nM and the TGI (SUM1315MO2; SUM1315MO2, total growth inhibition) was 158.3 nM. The CC50 (T47DKBluc; [1]) was 9500 nM, the IC50 (T47DKBluc; [2]) was 15.4 nM and the TGI (T47DKBluc; total growth inhibition) was 74.3 nM. For the same molecule, the CC50 (ZR75B; Homo sapiens, ZR-75B, 50% net loss of cells vs time 0, read-out: LC50 (the source's name)) was over 33000 nM, the IC50 (ZR75B; Homo sapiens, ZR-75B, 72 h, three-day drug treatment, read-out: gIC50) was 4.5 nM and the TGI (ZR75B; total growth inhibition) was 43.4 nM.
